The source of these data is patent US10295551B2, “Development and use of fluorescent probes of unbound bilirubin” (Alan Marc Kleinfeld, priority 2011, dated 2019).

Conditions in all cases: Table 5, acrylodan
In test [1] the target is T1, rI-FABP (SEQ ID NO: 3) variant L22P33 A10, 38R 72A 73N 106S 115C (Rattus norvegicus, UniProt P02693, A74N/L39R/L73A/Q116C/R107S).
T1 construct: made in house
Briefly: bilirubin binding to L22P33A10 probe. The procedure:
(§1) Also described are analytical/mathematical methods for calibrating and using the bilirubin probes. Bilirubin probes are calibrated to determine their binding affinity for bilirubin (dissociation constant Kd) under conditions, such as temperature, pH and solution composition, that correspond to samples in which it is desired to know the unbound bilirubin concentration. Binding isotherms are performed in aqueous buffer by measuring the change in fluorescence of the bilirubin probes in response to increasing bilirubin concentrations (“titration data”). The set of fluorescence responses at each bilirubin concentration are fitted with an appropriate equation (“calibration equation”) that correctly describes the fluorescence response as a function of the bilirubin concentration, the probe concentration, specific spectroscopic characteristics, and the Kd.

Test [2] has as its target T2, rI-FABP (SEQ ID NO: 3) variant L2P14 F7 - K27C, 18G 27C 31M 72A (Rattus norvegicus, UniProt P02693, G32M/K28C/L73A/M19G).
T2 construct: made in house
Briefly: bilirubin binding to L2P14F7-K27C probe. The procedure:
as §1

In test [3] the target is T3, rI-FABP (SEQ ID NO: 3) variant L24P19C7-K27C, 14R 18L 27C 38V 60R 73F 106C 115R 117D (Rattus norvegicus, UniProt P02693, A74F/K28C/L39V/L73A/M19L/Q116R/R107C/V61R/Y118D/Y15R).
T3 construct: made in house
T3 sequence (P02693 with tags, fused parts or gaps Y15R/M19L/K28C/L39V/V61R/L73A/A74F/R107C/Q116R/Y118D): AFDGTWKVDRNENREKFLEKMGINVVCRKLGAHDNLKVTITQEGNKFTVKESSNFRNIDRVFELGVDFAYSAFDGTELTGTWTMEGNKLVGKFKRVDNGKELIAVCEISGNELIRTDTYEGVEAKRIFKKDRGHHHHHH
Briefly: bilirubin binding to L24P19C7-K27C probe. The procedure:
as §1

Test [4] deals with T4, rI-FABP (SEQ ID NO: 3) variant L24P19 C7 K27K 26C, 14R 18L 26C 38V 60R 73F 106C 115R 117D (Rattus norvegicus, UniProt P02693, A74F/L39V/L73A/M19L/Q116R/R107C/V27C/V61R/Y118D/Y15R).
T4 construct: made in house
T4 sequence (P02693 with tags, fused parts or gaps Y15R/M19L/V27C/L39V/V61R/L73A/A74F/R107C/Q116R/Y118D): as the sequence (P02693 with tags, fused parts or gaps Y15R/M19L/K28C/L39V/V61R/L73A/A74F/R107C/Q116R/Y118D) above, with V26C, C27K counted along it
Nature of the test: bilirubin binding to L24P19C7 26C probe. How it is done:
as §1
(§2) . […] The optimal probe performance was obtained with cysteine at positions 25 or 26.

In test [5] the target is T5, rI-FABP (SEQ ID NO: 3) variant L22P19 B9, 38R 72A 73M 106Q 115C (Rattus norvegicus, UniProt P02693, A74M/L39R/L73A/Q116C/R107Q).
T5 construct: made in house
T5 sequence (P02693 with tags, fused parts or gaps L39R/L73A/A74M/R107Q/Q116C): as the sequence (P02693 with tags, fused parts or gaps Y15R/M19L/K28C/L39V/V61R/L73A/A74F/R107C/Q116R/Y118D) above, with R14Y, L18M, C27K, V38R, R60V, F73M, C106Q, R115C, D117Y counted along it
Briefly: bilirubin binding to L22P19B9 probe. How it is done: as §1

Test [6] deals with T6, rI-FABP (SEQ ID NO: 3) variant L24P19 C7 K27K 25C, 14R 18L 25C 38V 60R 73F 106C 115R 117D (Rattus norvegicus, UniProt P02693, A74F/L39V/L73A/M19L/Q116R/R107C/V26C/V61R/Y118D/Y15R).
T6 construct: made in house
T6 sequence (P02693 with tags, fused parts or gaps Y15R/M19L/V26C/L39V/V61R/L73A/A74F/R107C/Q116R/Y118D): as the sequence (P02693 with tags, fused parts or gaps Y15R/M19L/K28C/L39V/V61R/L73A/A74F/R107C/Q116R/Y118D) above, with V25C, C27K counted along it
Nature of the test: bilirubin binding to L24P19C7 25C probe. The procedure:
as §1, §2

The target in test [7] is T7, rI-FABP (SEQ ID NO: 3) variant BL2P2 B6, 14R 18L 31C 38V 60R 73V 106A 115R 117D (Rattus norvegicus, UniProt P02693, A74V/G32C/L39V/L73A/M19L/Q116R/R107A/V61R/Y118D/Y15R).
T7 construct: made in house
T7 sequence (P02693 with tags, fused parts or gaps Y15R/M19L/G32C/L39V/V61R/L73A/A74V/R107A/Q116R/Y118D): as the sequence (P02693 with tags, fused parts or gaps Y15R/M19L/K28C/L39V/V61R/L73A/A74F/R107C/Q116R/Y118D) above, with C27K, G31C, F73V, C106A counted along it
Nature of the test: bilirubin binding to BL2P2B6 probe. The procedure:
as §1

pKd: −log10 of the molar value.

T2 sequence (P02693 with tags, fused parts or gaps M19G/K28C/G32M/L73A): as the sequence (P02693 with tags, fused parts or gaps Y15R/M19L/K28C/L39V/V61R/L73A/A74F/R107C/Q116R/Y118D) above, with R14Y, L18G, G31M, V38L, R60V, F73A, C106R, R115Q, D117Y counted along it
T1 sequence (P02693 with tags, fused parts or gaps L39R/L73A/A74N/R107S/Q116C): as the sequence (P02693 with tags, fused parts or gaps Y15R/M19L/K28C/L39V/V61R/L73A/A74F/R107C/Q116R/Y118D) above, with R14Y, L18M, C27K, V38R, R60V, F73N, C106S, R115C, D117Y counted along it

What is called pKd is the negative decadic logarithm of the Kd, by convention in mol/L. Read a low pKd as a high Kd. For the compound `C=CC1=C(C)/C(=C/c2[nH]c(Cc3[nH]c(/C=C4\NC(=O)C(C)=C4C=C)c(C)c3CCC(=O)O)c(CCC(=O)O)c2C)NC1=O` [bilirubin], the pKd is 6.61 in test [1]; 6.60 in test [2]; 6.62 in test [3]; 7.72 in test [4]; 6.40 in test [5]; 7.72 in test [6]. For the same compound, the pKd in test [7] was 6.86.
